ChEMBL document CHEMBL1201862, “PubChem BioAssay data set” (2004)
The source made the active and inactive calls.

Assays:
Nonstructural protein 1 = Nonstructural protein 1 (Influenza A virus, UniProt Q194T2); type: functional, Influenza A virus (A/California/07/2009(H1N1))
Prothrombin = Prothrombin (Homo sapiens, UniProt P00734); experiment: Thrombin 1536 HTS Dose Response Confirmation. [Related pubchem assays: 1046 (Thrombin 1536 HTS; hits were confirmed in this assay)]; type: functional
[1] = cytotoxicity in HEK-293T cells, dose response, cytotoxicity control for BCR NF-kB inhibitor project, luminescence, B-cell screen hits (AID 489021); type: functional, cell-based;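 also: HEK-293T cells carrying an NF-kB luciferase reporter; cells exposed to compound for about 14 hours before viability readout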
Fatty acid synthase [2] = target: T1, Fatty acid synthase (Homo sapiens, UniProt P49327); experiment: FAS thioesterase domain inhibitors, dose response, biochemical, kinetic fluorescence intensity (AID 624326); type: functional;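 also: rate of fluorescence rise from hydrolysis of a fluorogenic O-methyl fluorescein ester substrate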
T1 sequence (P49327 whole entry, the tested form may be a part): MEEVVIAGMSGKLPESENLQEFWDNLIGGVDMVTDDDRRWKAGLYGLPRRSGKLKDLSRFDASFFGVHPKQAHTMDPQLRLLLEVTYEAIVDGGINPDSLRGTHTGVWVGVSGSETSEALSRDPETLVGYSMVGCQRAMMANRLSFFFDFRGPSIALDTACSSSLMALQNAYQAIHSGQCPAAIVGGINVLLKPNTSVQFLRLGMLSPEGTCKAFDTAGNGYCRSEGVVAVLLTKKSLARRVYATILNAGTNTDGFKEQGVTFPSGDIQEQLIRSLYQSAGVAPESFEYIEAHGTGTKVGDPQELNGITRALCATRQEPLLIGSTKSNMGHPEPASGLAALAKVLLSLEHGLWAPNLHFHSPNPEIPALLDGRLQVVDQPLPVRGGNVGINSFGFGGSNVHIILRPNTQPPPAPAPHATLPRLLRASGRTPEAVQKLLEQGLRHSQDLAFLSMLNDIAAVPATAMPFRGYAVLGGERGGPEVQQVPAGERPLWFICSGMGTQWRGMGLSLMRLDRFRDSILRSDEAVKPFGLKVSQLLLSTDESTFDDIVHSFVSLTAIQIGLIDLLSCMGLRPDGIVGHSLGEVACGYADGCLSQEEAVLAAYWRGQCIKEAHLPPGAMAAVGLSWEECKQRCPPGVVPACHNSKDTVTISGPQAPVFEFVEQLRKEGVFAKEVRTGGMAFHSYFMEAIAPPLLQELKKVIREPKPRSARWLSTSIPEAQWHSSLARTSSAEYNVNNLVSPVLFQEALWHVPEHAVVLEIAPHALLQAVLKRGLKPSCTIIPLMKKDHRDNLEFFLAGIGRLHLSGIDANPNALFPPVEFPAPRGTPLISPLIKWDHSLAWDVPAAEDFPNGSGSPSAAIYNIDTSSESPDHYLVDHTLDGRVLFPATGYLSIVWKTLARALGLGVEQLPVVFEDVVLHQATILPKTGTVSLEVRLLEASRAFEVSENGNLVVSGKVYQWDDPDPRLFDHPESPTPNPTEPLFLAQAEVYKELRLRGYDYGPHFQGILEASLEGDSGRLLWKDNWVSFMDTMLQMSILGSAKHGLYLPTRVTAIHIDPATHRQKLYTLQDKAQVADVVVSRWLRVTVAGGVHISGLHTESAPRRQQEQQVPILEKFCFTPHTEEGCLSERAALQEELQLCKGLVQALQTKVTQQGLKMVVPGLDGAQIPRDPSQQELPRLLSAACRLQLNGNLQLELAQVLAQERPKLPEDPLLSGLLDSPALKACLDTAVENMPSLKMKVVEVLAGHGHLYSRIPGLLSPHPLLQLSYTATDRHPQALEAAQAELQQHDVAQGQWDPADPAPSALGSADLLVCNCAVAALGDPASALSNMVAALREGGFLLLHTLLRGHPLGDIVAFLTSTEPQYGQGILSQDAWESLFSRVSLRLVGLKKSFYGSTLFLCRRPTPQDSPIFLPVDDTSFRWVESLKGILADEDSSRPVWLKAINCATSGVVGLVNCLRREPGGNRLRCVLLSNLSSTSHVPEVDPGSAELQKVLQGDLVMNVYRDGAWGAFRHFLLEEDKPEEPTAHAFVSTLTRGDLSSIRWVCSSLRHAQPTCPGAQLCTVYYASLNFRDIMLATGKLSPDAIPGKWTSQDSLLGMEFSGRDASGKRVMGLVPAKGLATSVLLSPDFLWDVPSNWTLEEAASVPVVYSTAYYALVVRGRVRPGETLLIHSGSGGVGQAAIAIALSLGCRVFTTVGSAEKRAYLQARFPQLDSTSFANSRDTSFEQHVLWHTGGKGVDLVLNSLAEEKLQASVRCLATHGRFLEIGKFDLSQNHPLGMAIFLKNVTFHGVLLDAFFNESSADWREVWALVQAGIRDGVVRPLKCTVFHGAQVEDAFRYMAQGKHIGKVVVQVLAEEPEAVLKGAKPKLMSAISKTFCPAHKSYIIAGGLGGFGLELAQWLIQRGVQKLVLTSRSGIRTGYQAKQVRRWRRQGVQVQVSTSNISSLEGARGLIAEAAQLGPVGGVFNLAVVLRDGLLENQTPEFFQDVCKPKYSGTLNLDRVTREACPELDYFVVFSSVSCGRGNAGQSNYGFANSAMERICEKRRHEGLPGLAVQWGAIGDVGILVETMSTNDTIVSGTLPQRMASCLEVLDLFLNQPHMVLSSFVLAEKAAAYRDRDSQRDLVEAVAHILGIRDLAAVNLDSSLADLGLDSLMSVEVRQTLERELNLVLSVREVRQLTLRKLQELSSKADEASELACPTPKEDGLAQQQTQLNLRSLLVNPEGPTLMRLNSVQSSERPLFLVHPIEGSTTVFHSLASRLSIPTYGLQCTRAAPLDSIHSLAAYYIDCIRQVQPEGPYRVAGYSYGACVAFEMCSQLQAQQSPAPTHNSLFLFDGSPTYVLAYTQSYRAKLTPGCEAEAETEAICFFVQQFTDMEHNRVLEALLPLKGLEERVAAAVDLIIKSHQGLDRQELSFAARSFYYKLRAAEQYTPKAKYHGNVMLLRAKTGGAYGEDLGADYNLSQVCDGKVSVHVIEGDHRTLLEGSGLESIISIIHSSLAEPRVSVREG

Fatty acid synthase [3] = target: T1, Fatty acid synthase; experiment: FAS thioesterase domain inhibitors, dose response, biochemical, endpoint fluorescence intensity, uHTS hits (AID 624327); type: functional;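 also: fluorescence from hydrolysis of an O-methyl fluorescein acyl ester substrate by the enzyme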
[4] = target: T2, Carboxy-terminal domain RNA polymerase II polypeptide A small phosphatase 1 (Homo sapiens, UniProt Q9GZU7); experiment: inhibitors of CTDSP1, concentration-response testing, biochemical assay, absorbance-based, actives from ultra-high-throughput screening (AID 540297); type: functional
T2 sequence (Q9GZU7 whole entry): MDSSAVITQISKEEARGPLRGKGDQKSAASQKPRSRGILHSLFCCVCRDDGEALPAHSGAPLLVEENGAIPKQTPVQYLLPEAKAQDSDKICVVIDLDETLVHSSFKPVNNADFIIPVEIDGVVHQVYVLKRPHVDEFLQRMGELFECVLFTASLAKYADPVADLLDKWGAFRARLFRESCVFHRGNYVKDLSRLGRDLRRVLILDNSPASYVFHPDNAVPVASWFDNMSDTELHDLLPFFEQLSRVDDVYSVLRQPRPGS

Caspase-6 = target: T3, Caspase-6 (Homo sapiens, UniProt P55212); experiment: human caspase-6 inhibitors, dose response, biochemical, VEID-R110 fluorescence, cherry-pick (AID 720632)
T3 sequence (P55212 whole entry): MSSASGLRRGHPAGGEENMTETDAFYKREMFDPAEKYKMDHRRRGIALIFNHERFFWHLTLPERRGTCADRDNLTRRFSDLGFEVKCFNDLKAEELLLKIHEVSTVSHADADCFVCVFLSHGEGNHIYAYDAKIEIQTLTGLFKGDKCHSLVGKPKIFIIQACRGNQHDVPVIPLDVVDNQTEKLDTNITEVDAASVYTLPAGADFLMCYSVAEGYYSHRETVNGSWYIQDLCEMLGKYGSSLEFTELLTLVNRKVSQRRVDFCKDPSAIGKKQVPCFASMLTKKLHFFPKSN

[5] = cytotoxicity toward NIH3T3 fibroblasts, dose response, counter-screen, cell-based, ATP luminescence, mouse fibroblasts (AID 2010); type: functional;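 also: cells exposed to compound for about 90 hours before reading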
[6] = microbe, parasite or virus in culture; type: functional; conditions: Mycobacterium tuberculosis
[7] = inhibitors of intracellular T. cruzi replication, confirmation, NIH3T3 host cells, beta-gal luminescence (AID 2044); type: functional, cell-based;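 also: intracellular parasites grown in NIH/3T3 mouse fibroblasts as host cells; luminescent beta-galactosidase reporter signal from transgenic T. cruzi replicating inside host cells; inhibitors lower the luminescence signal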
[8] = target: T4, Heat shock factor protein 1 (Mus musculus, UniProt P38532); experiment: inhibition of MG132-induced HSE-luciferase signal, confirmation, cell-based, NIH3T3, luminescence, dose retest (AID 2382); type: functional;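 also: NIH3T3 fibroblasts with HSF1-driven luciferase reporter stressed by proteasome inhibitor MG132; luminescence from HSF1-driven luciferase expression after 8 hours of MG132 stress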
T4 sequence (P38532 whole entry): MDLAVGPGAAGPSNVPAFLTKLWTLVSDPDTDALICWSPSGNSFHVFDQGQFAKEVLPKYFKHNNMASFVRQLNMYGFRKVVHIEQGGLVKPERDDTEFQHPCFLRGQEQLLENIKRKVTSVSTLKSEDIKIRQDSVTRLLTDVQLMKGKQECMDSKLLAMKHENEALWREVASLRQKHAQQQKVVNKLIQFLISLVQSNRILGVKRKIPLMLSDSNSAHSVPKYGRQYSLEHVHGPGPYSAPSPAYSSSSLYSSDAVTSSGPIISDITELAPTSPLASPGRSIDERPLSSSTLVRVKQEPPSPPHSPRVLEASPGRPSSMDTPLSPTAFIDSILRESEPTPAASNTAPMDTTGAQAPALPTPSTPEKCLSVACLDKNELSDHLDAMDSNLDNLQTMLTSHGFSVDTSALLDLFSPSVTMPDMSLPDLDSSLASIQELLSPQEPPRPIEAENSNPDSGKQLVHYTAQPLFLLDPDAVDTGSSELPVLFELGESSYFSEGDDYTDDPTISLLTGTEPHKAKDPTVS

[9] = target: DNA dC->dU-editing enzyme APOBEC-3G (Homo sapiens, UniProt Q9HC16); experiment: Dose Response confirmation of small molecule APOBEC3G DNA Deaminase Inhibitors via a fluorescence-based single-stranded DNA deaminase assay. [Related pubchem assays (depositor defined):AID493012, AID493028]; type: functional
DNA dC->dU-editing enzyme APOBEC-3G, sequence (Q9HC16 whole entry): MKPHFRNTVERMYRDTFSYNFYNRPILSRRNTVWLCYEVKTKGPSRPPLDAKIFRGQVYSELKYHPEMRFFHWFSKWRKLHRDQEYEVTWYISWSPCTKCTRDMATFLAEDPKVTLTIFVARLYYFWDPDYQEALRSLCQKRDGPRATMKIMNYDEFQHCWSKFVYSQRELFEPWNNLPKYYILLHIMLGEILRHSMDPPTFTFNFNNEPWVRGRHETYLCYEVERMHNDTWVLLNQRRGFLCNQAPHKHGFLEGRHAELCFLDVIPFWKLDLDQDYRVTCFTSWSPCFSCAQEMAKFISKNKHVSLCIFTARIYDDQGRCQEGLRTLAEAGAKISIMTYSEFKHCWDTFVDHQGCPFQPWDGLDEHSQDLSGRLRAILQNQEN

Genome polyprotein = Genome polyprotein (dengue virus type 2, UniProt P29990); experiment: Dengue-2 NS5 methyltransferase inhibitors, primary screen, biochemical, confirmation dose response (AID 588689); type: functional
Genome polyprotein, sequence (P29990 2492-3391 limits assumed): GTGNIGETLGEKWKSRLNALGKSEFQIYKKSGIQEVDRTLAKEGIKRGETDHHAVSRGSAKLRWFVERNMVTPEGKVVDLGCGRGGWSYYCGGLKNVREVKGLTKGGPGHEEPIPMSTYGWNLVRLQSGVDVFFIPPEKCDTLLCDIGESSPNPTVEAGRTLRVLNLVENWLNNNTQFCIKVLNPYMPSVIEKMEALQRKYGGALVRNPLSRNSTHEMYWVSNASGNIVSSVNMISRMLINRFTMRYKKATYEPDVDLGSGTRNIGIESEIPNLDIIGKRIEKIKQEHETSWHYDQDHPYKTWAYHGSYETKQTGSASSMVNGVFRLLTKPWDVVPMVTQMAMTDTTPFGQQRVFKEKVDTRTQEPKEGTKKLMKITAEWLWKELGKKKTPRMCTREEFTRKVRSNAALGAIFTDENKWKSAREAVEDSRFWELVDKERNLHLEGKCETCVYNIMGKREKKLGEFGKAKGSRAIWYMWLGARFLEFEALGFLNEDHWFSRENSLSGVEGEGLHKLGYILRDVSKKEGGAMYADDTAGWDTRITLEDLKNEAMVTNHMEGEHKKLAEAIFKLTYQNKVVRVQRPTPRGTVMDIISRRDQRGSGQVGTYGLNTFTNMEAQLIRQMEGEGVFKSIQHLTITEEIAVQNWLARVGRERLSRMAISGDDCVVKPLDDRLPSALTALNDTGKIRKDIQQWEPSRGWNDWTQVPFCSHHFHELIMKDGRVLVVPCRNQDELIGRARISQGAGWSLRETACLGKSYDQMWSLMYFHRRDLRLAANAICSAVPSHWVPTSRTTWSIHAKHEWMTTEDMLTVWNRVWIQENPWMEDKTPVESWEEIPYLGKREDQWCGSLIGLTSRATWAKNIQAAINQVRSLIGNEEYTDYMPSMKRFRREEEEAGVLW

Large T antigen = Large T antigen (Simian virus 40, UniProt P03070); type: functional, Betapolyomavirus macacae;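 also: Confirmatory-stage PubChem screen for compounds that inhibit SV40 T antigen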
Large T antigen, sequence (P03070 whole entry): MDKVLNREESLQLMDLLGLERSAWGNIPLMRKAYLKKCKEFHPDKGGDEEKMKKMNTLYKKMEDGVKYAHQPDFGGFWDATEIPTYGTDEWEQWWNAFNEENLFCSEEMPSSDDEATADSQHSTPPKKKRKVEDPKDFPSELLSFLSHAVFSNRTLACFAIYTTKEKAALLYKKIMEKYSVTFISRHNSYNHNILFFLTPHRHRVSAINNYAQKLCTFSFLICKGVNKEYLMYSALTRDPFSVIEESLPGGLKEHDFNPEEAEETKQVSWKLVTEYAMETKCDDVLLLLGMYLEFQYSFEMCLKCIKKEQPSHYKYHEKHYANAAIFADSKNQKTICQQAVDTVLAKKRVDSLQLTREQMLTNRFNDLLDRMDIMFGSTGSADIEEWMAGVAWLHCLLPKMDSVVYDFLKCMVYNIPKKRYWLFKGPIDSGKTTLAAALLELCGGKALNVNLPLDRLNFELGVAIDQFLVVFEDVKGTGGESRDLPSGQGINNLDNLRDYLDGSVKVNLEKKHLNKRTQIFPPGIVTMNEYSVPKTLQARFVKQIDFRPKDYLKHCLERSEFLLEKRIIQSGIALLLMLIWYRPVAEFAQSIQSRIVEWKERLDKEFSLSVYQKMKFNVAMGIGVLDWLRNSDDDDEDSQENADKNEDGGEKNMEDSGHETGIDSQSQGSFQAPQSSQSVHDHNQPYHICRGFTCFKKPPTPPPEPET

[10] = Luminescence Cell-Based Dose Confirmation HTS to Identify Activators of 5'UTR Stem-Loop Driven Alpha-Synuclein mRNA Translation in H4 Neuroglioblastoma Cells. [Related pubchem assays: 1829 (Project Summary), 1814 (Primary HTS)]; type: functional
H4 = experiment: Luminescence Cell-Based Dose Response HTS to Identify Activators of 5'UTR Stem-Loop Driven Prion Protein mRNA Translation in H4 Neuroglioblastoma Cells. [Related pubchem assays: 1829 (Project Summary), 1814 (Primary HTS)]; type: functional; conditions: Homo sapiens
[11] = Luminescence Cell-Based Dose Response HTS to Identify Activators of Luciferase Translation or Activity in H4 […] Cells. [Related pubchem assays: 1829 (Project Summary), 1814 (Primary HTS)]; type: functional
[12] = Luminescence-based cell-based high throughput dose response assay to identify activators of the DAF-12 from the parasite S. stercoralis (ssDAF-12).; type: functional
[13] = Luminescence Cell-Based Dose Response HTS to Identify Inhibitors of 5'UTR Stem-Loop Driven Prion Protein mRNA Translation in H4 Neuroglioblastoma Cells. [Related pubchem assays: 1827 (Project Summary), 1813 (Primary HTS)]; type: functional
[14] = inhibitors of firefly luciferase expression or activity, dose response, H4 neuroglioma cells, luminescence (AID 1990); type: functional, cell-based
[15] = inhibitors of SNCA 5'UTR-driven reporter translation, confirmation, H4 neuroglioma cells, luminescence (AID 1988); type: functional, cell-based

Nonstructural protein 1, sequence (Q194T2 whole entry): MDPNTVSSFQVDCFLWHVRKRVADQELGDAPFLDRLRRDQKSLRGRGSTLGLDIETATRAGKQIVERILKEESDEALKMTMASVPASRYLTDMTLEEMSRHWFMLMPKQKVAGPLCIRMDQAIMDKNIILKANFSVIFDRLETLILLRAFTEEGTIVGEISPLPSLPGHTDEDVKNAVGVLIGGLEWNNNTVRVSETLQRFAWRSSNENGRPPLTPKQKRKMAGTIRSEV

Which IC50 (Nonstructural protein 1) does the source give for `Cc1ccc(S(=O)(=O)N2CCN(C(=O)c3ccc(N4CCCC4)c([N+](=O)[O-])c3)CC2)cc1` here?
Its IC50 is > 100 µM (active).

Which IC50 (Prothrombin) does the source give for `CCCc1nc(NC(C)=O)c(C#N)c(-c2ccco2)c1CC` here?
Its IC50 is > 50 µM (not active).

With `COc1cc(C(=O)Nc2cc(C)c(OCC(=O)N3CCOCC3)c(C)c2)cc(OC)c1OC` as the molecule, how does the IC50 [1] read?
Its IC50 is > 80 µM (inactive).

Which IC50 (Fatty acid synthase [2]) does the source give for `O=[N+]([O-])c1ccc(Sc2n[nH]c(-c3ccc(Cl)cc3Cl)n2)nc1` here?
Its IC50 is 8.25 µM (active).

And the IC50 (Fatty acid synthase [3])?
The IC50 was 7.15 µM (active).

For `O=C(NNC(=O)c1ccccc1Br)c1ccc2nc[nH]c2c1`, which IC50 [4] is on record?
The IC50 was 7.34 µM (active).

And the AC50 (Caspase-6)?
The AC50 was 23.6 µM (active).

Which results are given for `CCC1C(c2ccccc2)N(C)C(c2ccccc2)CC1(O)c1ccccc1` (centres undefined)?
EC50 [5]: > 60 µM (not active); CC50 [6]: > 40 µM (active); EC50 [7]: 2.31 µM (active)

Which results are given for `CCCCC(=O)Nc1sc(C(=O)N(CC)CC)c(C)c1C(=O)OC`?
EC50 [8]: > 195 µM (not active); IC50 [9]: 49.6 µM (active)

What does the source list for `C/C(=C/C(=O)N1CCN(C)CC1)C(=O)O`?
EC50 [8]: 36.8 µM (active); IC50 (Prothrombin): > 50 µM (not active)

Which results are given for `O=C(NCc1ccc(F)cc1)C(C(=O)NCc1ccc(F)cc1)c1ncc(C(F)(F)F)cc1Cl`?
IC50 (Fatty acid synthase [2]): 11.8 µM (active); IC50 (Fatty acid synthase [3]): 7.79 µM (active)

With `CCN(CC)S(=O)(=O)c1ccc2c(c1)c(=O)c(C(=O)NCc1cccs1)cn2C` as the molecule, how does the IC50 (Prothrombin) read?
The IC50 was 0.0331 µM (active).

For `CSCCC(NC(=O)c1cccc(C)c1)C(=O)OCC(=O)NC(=O)c1cccn1C` (centres undefined), which IC50 (Prothrombin) is on record?
Its IC50 is 39 µM (active).

Which IC50 (Nonstructural protein 1) does the source give for `Nn1c(SC/C=C/c2ccccc2)nnc1-c1ccccn1` here?
The IC50 was 24 µM (active).

For `Cc1ccc(N2C(S)=NC3c4ccccc4OC2(C)C3C(=O)N(C)C)cc1` (centres undefined), which IC50 (Prothrombin) is on record?
Its IC50 is > 50 µM (inconclusive).

With `COc1ccc(OCC(=O)N2CCN(Cc3ccc(SC)cc3)CC2)cc1` as the molecule, how does the IC50 (Prothrombin) read?
The IC50 was > 50 µM (not active).

For `CC1=C(C#N)c2nc(N)c(C#N)c(C)c2/C1=C\c1ccc(OCC(=O)O)c(Cl)c1`, which EC50 [8] is on record?
The EC50 was > 195 µM (not active).

What about the IC50 (Genome polyprotein) of the same molecule?
Its IC50 is 35.9 µM (active).

And the IC50 (Large T antigen)?
The IC50 was 44.3 µM (active).

Which results are given for `COc1ccc(NCc2nc3ccccc3n2CCOc2ccccc2)cc1`?
EC50 [10]: 7.26 µM (active); EC50 (H4): 79.8 µM (active); EC50 [5]: > 60 µM (not active); CC50 [6]: > 40 µM (active); EC50 [11]: 53.4 µM (active); EC50 [7]: 2.36 µM (active)

With `Nc1nc(=O)n(C2CC(O)C(CO)O2)cc1Cl` (centres undefined) as the molecule, how does the IC50 [12] read?
Its IC50 is > 67.6 µM (inactive).

For `O=C(COC(=O)c1cc([N+](=O)[O-])ccc1N1CCOCC1)c1ccc(F)cc1`, which IC50 (Fatty acid synthase [2]) is on record?
Its IC50 is 9.03 µM (active).

And the IC50 (Fatty acid synthase [3])?
The IC50 was 5.45 µM (active).

For `O=C(Nc1ccc(O)cc1)/C(=C\c1ccncc1)NC(=O)c1ccccc1`, which IC50 (Large T antigen) is on record?
The IC50 was 27.7 µM (active).

With `CCOc1ccc(-n2c(SCc3ccc([N+](=O)[O-])cc3)nnc2-c2ccccc2)cc1` as the molecule, how does the IC50 (Fatty acid synthase [2]) read?
The IC50 was 5.2 µM (active).

And the EC50 [13]?
The EC50 was 69.4 µM (active).

And the EC50 [14]?
Its EC50 is 15.5 µM (active).

And the IC50 (Fatty acid synthase [3])?
Its IC50 is 6.83 µM (active).

What about the EC50 [15] of the same molecule?
The EC50 was 24.9 µM (active).

Which IC50 [1] does the source give for `O=C(CCCN1C(=O)/C(=C/c2ccccc2Cl)SC1=S)Nc1cccnc1` here?
The IC50 was > 80 µM (inactive).

With `CCN(CC)Cc1nc(O)c2c(n1)-c1ccccc1CC2(CC)CC` as the molecule, how does the CC50 [6] read?
The CC50 was > 40 µM (active).

For `COc1ccc(-c2ccc(F)cc2)cc1[C@H]1[C@H]2C=CC[C@@H](C)[C@@H]2C(=O)N1Cc1ccccc1`, which IC50 [1] is on record?
Its IC50 is > 80 µM (inactive).

For `COc1ccc(CNc2ccc(N3CCOCC3)cc2)cc1`, which IC50 (Large T antigen) is on record?
The IC50 was 16.8 µM (active).

Which IC50 [1] does the source give for `CN1CCN(C(=O)c2ccccc2N(Cc2ccccc2)S(=O)(=O)c2ccccc2)CC1` here?
The IC50 was > 80 µM (inactive).
